We go through eight compounds from ChEMBL document CHEMBL5724914, “Linking interpersonal differences in gut microbiota composition and drug biotransformation activity” (2024).

Series [1] is described as follows: The drug is tested on Z-024 corresponding to pig gut metagenome with ENA study accession number: PRJEB37062 and ENA sample accession number: ERS12561823 for biotransformation under anaerobic condition. The drug concentrations were measured over 9 timepoints collected between 0 and 24 hours of incubation by liquid-chromatography-coupled mass spectrometry (LC–MS). Conditions: 2 µM.

Series [2] is described as follows: The drug is tested on Z-006 corresponding to mouse gut metagenome with ENA study accession number: PRJEB37062 and ENA sample accession number: ERS12561806 for biotransformation under anaerobic condition. The drug concentrations were measured over 9 timepoints collected between 0 and 24 hours of incubation by liquid-chromatography-coupled mass spectrometry (LC–MS). Conditions: 2 µM.

Series [3] is described as follows: The drug is tested on Z-021 corresponding to metagenome with ENA study accession number: PRJEB37062 and ENA sample accession number: ERS12561820 for biotransformation under anaerobic condition. The drug concentrations were measured over 9 timepoints collected between 0 and 24 hours of incubation by liquid-chromatography-coupled mass spectrometry (LC–MS). Conditions: 2 µM.

Series [4] in a line: The drug is tested on Z-016 corresponding to mouse gut metagenome with ENA study accession number: PRJEB37062 and ENA sample accession number: ERS12561815 for biotransformation under anaerobic condition. The drug concentrations were measured over 9 timepoints collected between 0 and 24 hours of incubation by liquid-chromatography-coupled mass spectrometry (LC–MS). Conditions: 2 µM.

Series [5] is described as follows: The drug is tested on WLS-010 corresponding to human gut metagenome with ENA study accession number: PRJEB37062 and ENA sample accession number: ERS12561743 for biotransformation under anaerobic condition. The drug concentrations were measured over 9 timepoints collected between 0 and 24 hours of incubation by liquid-chromatography-coupled mass spectrometry (LC–MS). Conditions: 2 µM.

Series [6] in a line: The drug is tested on WLS-027 corresponding to human gut metagenome with ENA study accession number: PRJEB37062 and ENA sample accession number: ERS12561744 for biotransformation under anaerobic condition. The drug concentrations were measured over 9 timepoints collected between 0 and 24 hours of incubation by liquid-chromatography-coupled mass spectrometry (LC–MS). Conditions: 2 µM.

For series [7] the following is noted: human gut metagenome, 24 h, 2 µM.
A short description of series [8]: The drug is tested on WLS-073 corresponding to human gut metagenome with ENA study accession number: PRJEB37062 and ENA sample accession number: ERS12561749 for biotransformation under anaerobic condition. The drug concentrations were measured over 9 timepoints collected between 0 and 24 hours of incubation by liquid-chromatography-coupled mass spectrometry (LC–MS). Conditions: 2 µM.

For series [9] the following is noted: human gut metagenome, 24 h, 2 µM. The source holds these as a separate data set.
For series [10] the following is noted: human gut metagenome, 24 h, 2 µM. This is another data set of the same source.
For series [11] the following is noted: human gut metagenome, 24 h, 2 µM. The source holds these as a separate data set.
For series [12] the following is noted: human gut metagenome, 24 h, 2 µM. This is another data set of the same source.
Series [13] can be described thus: The drug is tested on WLS-170 corresponding to human gut metagenome with ENA study accession number: PRJEB37062 and ENA sample accession number: ERS12561762 for biotransformation under anaerobic condition. The drug concentrations were measured over 9 timepoints collected between 0 and 24 hours of incubation by liquid-chromatography-coupled mass spectrometry (LC–MS). Conditions: 2 µM.

For series [14] the following is noted: human gut metagenome, 24 h, 2 µM. The source holds these as a separate data set.
Series [15] can be described thus: The drug is tested on WLS-038 corresponding to human gut metagenome with ENA study accession number: PRJEB37062 and ENA sample accession number: ERS12561745 for biotransformation under anaerobic condition. The drug concentrations were measured over 9 timepoints collected between 0 and 24 hours of incubation by liquid-chromatography-coupled mass spectrometry (LC–MS). Conditions: 2 µM.

Series [16] in a line: The drug is tested on WLS-350 corresponding to human gut metagenome with ENA study accession number: PRJEB37062 and ENA sample accession number: ERS12561789 for biotransformation under anaerobic condition. The drug concentrations were measured over 9 timepoints collected between 0 and 24 hours of incubation by liquid-chromatography-coupled mass spectrometry (LC–MS). The settings on record: 2 µM.

The conditions of series [17]: human gut metagenome, 24 h, 2 µM. The source holds these as a separate data set.
The nature of series [18]: The drug is tested on WLS-220 corresponding to human gut metagenome with ENA study accession number: PRJEB37062 and ENA sample accession number: ERS12561769 for biotransformation under anaerobic condition. The drug concentrations were measured over 9 timepoints collected between 0 and 24 hours of incubation by liquid-chromatography-coupled mass spectrometry (LC–MS). Conditions: 2 µM.

For series [19] the following is noted: human gut metagenome, 24 h, 2 µM. This is another data set of the same source.
The conditions of series [20]: human gut metagenome, 24 h, 2 µM. The source holds these as a separate data set.
Note: call rule not given here.

On to `CN1C[C@H](C(=O)N[C@]2(C)O[C@@]3(O)[C@@H]4CCCN4C(=O)[C@H](Cc4ccccc4)N3C2=O)C[C@@H]2c3cccc4[nH]cc(c34)C[C@H]21.CS(=O)(=O)O` [DIHYDROERGOTAMINE MESYLATE], for which the “Bacterial Biotransformation” value was “Compound metabolized” in series [1], “Compound NOT metabolized” in [2], “Compound NOT metabolized” in series [3] and “Compound NOT metabolized” in series [4].
Regarding `C#C[C@]1(OC(C)=O)CC[C@H]2[C@@H]3CCC4=CC(=O)CC[C@@H]4[C@H]3CC[C@@]21C` [NORETHINDRONE ACETATE], the “Bacterial Biotransformation” value in series [1], in series [5], in series [6], in series [2], in [7] and in [8] was “Compound metabolized” in each case. The “Bacterial Biotransformation” value is “Compound metabolized” in [9]; “Compound NOT metabolized” in series [10]; “Compound metabolized” in series [11]; “Compound metabolized” in series [12]; “Compound metabolized” in series [3]; “Compound metabolized” in series [13]. The “Bacterial Biotransformation” value in series [14] and in [15] was “Compound metabolized” in each case.
Turning to `CSc1ccc2c(c1)C(N1CCN(C)CC1)Cc1ccccc1S2.O=C(O)/C=C\C(=O)O` (configuration not stated), the “Bacterial Biotransformation” value in series [1] was “Compound metabolized”; in [5], “Compound metabolized”; in series [6], “Compound NOT metabolized”; in series [16], “Compound NOT metabolized”; in [17], “Compound NOT metabolized”; in series [2], “Compound metabolized”. The “Bacterial Biotransformation” value in [9] is “Compound NOT metabolized”; in series [10], “Compound metabolized”; in [11], “Compound NOT metabolized”; in [12] it was “Compound NOT metabolized”; in [3], “Compound metabolized”; in series [13] it was “Compound metabolized”. Moreover, the “Bacterial Biotransformation” value in [14] is on record as “Compound NOT metabolized”; in series [15] it was “Compound NOT metabolized”; in series [4], “Compound metabolized”.
As for `CCOC(=O)[C@H](CCc1ccccc1)N[C@@H](C)C(=O)N1CCC[C@H]1C(=O)O.O=C(O)/C=C\C(=O)O` [ENALAPRIL MALEATE], the “Bacterial Biotransformation” value in series [1] is recorded as “Compound metabolized”; in [5], “Compound NOT metabolized”; in series [6] it was “Compound NOT metabolized”; in [16], “Compound NOT metabolized”; in series [17], “Compound NOT metabolized”; in series [2], “Compound NOT metabolized”. The “Bacterial Biotransformation” value in series [7], in series [8], in series [9], in [10], in series [18] and in series [11] was “Compound NOT metabolized” throughout. In addition, the “Bacterial Biotransformation” value was “Compound NOT metabolized” in [12]; “Compound NOT metabolized” in series [19]; “Compound metabolized” in [3]; “Compound NOT metabolized” in series [13]; “Compound NOT metabolized” in [14]; “Compound NOT metabolized” in series [20]. Also, the “Bacterial Biotransformation” value in series [15] is reported as “Compound NOT metabolized”.
For the compound `Cc1cc2c(s1)Nc1ccccc1N=C2N1CCN(C)CC1` [OLANZAPINE], the “Bacterial Biotransformation” value in series [1], in series [5], in series [6], in [16], in series [17] and in [2] was “Compound NOT metabolized” throughout. The “Bacterial Biotransformation” value in series [7], in [9], in series [10], in series [18], in series [11] and in [12] was “Compound NOT metabolized” throughout. The “Bacterial Biotransformation” value is listed as “Compound NOT metabolized” in [19]; “Compound NOT metabolized” in [3]; “Compound NOT metabolized” in [14]; “Compound metabolized” in [20]; “Compound NOT metabolized” in series [15]; “Compound NOT metabolized” in series [4].
As for `CN1[C@@H]2CC[C@H]1C[C@@H](OC(=O)[C@H](CO)c1ccccc1)C2` [HYOSCYAMINE], the “Bacterial Biotransformation” value was “Compound NOT metabolized” in series [1]; “Compound NOT metabolized” in series [6]; “Compound NOT metabolized” in series [8]; “Compound metabolized” in series [10]; “Compound NOT metabolized” in series [11]; “Compound metabolized” in series [12]. Further, the “Bacterial Biotransformation” value in series [19] was “Compound metabolized”; in series [3], “Compound NOT metabolized”; in series [13], “Compound metabolized”; in series [14], “Compound NOT metabolized”; in [20] it was “Compound metabolized”.
For `Cc1ccc(NC(=O)c2ccc(CN3CCN(C)CC3)cc2)cc1Nc1nccc(-c2cccnc2)n1` [IMATINIB], the “Bacterial Biotransformation” value in [1], in series [2] and in [4] was “Compound NOT metabolized” each time.
For `CN[C@H]1CC[C@@H](c2ccc(Cl)c(Cl)c2)c2ccccc21` [SERTRALINE], the “Bacterial Biotransformation” value in series [1] was “Compound metabolized”; in [6], “Compound metabolized”; in series [16], “Compound NOT metabolized”; in series [17], “Compound NOT metabolized”; in series [2], “Compound NOT metabolized”; in series [7], “Compound metabolized”. Moreover, the “Bacterial Biotransformation” value in [9] is recorded as “Compound metabolized”; in series [10] it was “Compound metabolized”; in [18], “Compound metabolized”; in series [11] it was “Compound NOT metabolized”; in series [12], “Compound NOT metabolized”; in series [19], “Compound NOT metabolized”. For the same compound, the “Bacterial Biotransformation” value in series [3] is “Compound metabolized”; in [13], “Compound metabolized”; in [14], “Compound metabolized”; in series [20] it was “Compound metabolized”; in series [15], “Compound metabolized”; in series [4], “Compound NOT metabolized”.
